Experimental data published in ChEMBL document CHEMBL1201862, “PubChem BioAssay data set” (2004).
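Results reflect a 48-hour exposure of cells in 96-well plates to compound at five concentrations. At the GI50, growth is halved.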 The source made the active and inactive calls. Cut-off read from the data, not from the text of the source: active = GI50 up to about 1.1 µM and inactive = higher.

Experiments:
Test in all cases: NCI anticancer screen, dose series, 48 h
DU-145 = system: DU-145
786-0 = system: 786-0
NCI-H23 = system: NCI-H23
BT-549 = system: BT-549
UACC-257 = system: UACC-257
SF-295 = system: SF-295
U-251 = system: U-251
NCI-H522 = system: NCI-H522
MDA-MB-435 = system: MDA-MB-435
CAKI-1 = system: CAKI-1
SF-268 = system: SF-268
SNB-75 = system: SNB-75
OVCAR-3 = system: OVCAR-3
UACC-62 = system: UACC-62
OVCAR-4 = system: OVCAR-4
MCF7 = system: MCF7
UO-31 = system: UO-31
SK-MEL-28 = system: SK-MEL-28
SW-620 = system: SW-620
HL-60 = system: HL-60
HOP-92 = system: HOP-92
NCI-H460 = system: NCI-H460
HT-29 = system: HT-29
A498 = system: A498
Hs-578T = system: Hs-578T
MDA-N = system: MDA-N
CCRF-CEM = system: CCRF-CEM
OVCAR-5 = system: OVCAR-5
HCT-116 = system: HCT-116
T47D = system: T47D
HCT-15 = system: HCT-15
SR = system: SR
TK-10 = system: TK-10
SF-539 = system: SF-539
NCI-H226 = system: NCI-H226
K562 = system: K562
RPMI-8226 = system: RPMI-8226
COLO 205 = system: COLO 205
SK-OV-3 = system: SK-OV-3
RXF 393 = system: RXF 393
MDA-MB-231 = system: MDA-MB-231
EKVX = system: EKVX
A549 = system: A549
SK-MEL-5 = system: SK-MEL-5
NCI/ADR-RES = system: NCI/ADR-RES
SNB-19 = system: SNB-19
PC-3 = system: PC-3
LOX IMVI = system: LOX IMVI
OVCAR-8 = system: OVCAR-8
HCC 2998 = system: HCC 2998
SK-MEL-2 = system: SK-MEL-2
IGROV-1 = system: IGROV-1
M14 = system: M14
Malme-3M = system: Malme-3M
KM12 = system: KM12
ACHN = system: ACHN
HOP-62 = system: HOP-62
KM-20L2 = system: KM-20L2
M19-MEL = system: M19-MEL
SN12C = system: SN12C
MOLT-4 = system: MOLT-4

In the case of `CC1(COS(=O)(=O)OCC2(C)COS(=O)(=O)OC2)COS(=O)(=O)OC1`, the GI50 (DU-145) is reported as > 36.5 µM (inactive), the GI50 (786-0) is reported as > 50.8 µM (inactive) and the GI50 (NCI-H23) is reported as > 25.8 µM (inactive). The GI50 (BT-549) was > 48.8 µM (inactive), the GI50 (UACC-257) was > 75 µM (inactive) and the GI50 (SF-295) was > 100 µM (inactive). The GI50 (U-251) was > 38.1 µM (inactive), the GI50 (NCI-H522) was > 61.1 µM (inactive) and the GI50 (MDA-MB-435) was > 41.2 µM (inactive). The GI50 (CAKI-1) was > 100 µM (inactive), the GI50 (SF-268) was > 100 µM (inactive) and the GI50 (SNB-75) was > 100 µM (inactive). The GI50 (OVCAR-3) was > 100 µM (inactive), the GI50 (UACC-62) was > 61.8 µM (inactive) and the GI50 (OVCAR-4) was > 60.8 µM (inactive). For the same compound, the GI50 (MCF7) was > 22.3 µM (inactive), the GI50 (UO-31) was > 41.2 µM (inactive) and the GI50 (SK-MEL-28) was > 100 µM (inactive). For the same compound, the GI50 (SW-620) was > 55.2 µM (inactive), the GI50 (HL-60) was > 35.1 µM (inactive) and the GI50 (HOP-92) was 10.3 µM (inactive). For the same compound, the GI50 (NCI-H460) was > 42.3 µM (inactive), the GI50 (HT-29) was > 32.6 µM (inactive) and the GI50 (A498) was > 45.8 µM (inactive). For the same compound, the GI50 (Hs-578T) was > 100 µM (inactive), the GI50 (MDA-N) was > 72.4 µM (inactive) and the GI50 (CCRF-CEM) was > 28.2 µM (inactive). For the same compound, the GI50 (OVCAR-5) was > 100 µM (inactive), the GI50 (HCT-116) was > 52.6 µM (inactive) and the GI50 (T47D) was > 20.9 µM (inactive). The GI50 (HCT-15) was greater than 35.7 µM, the GI50 (SR) was > 24.9 µM (inactive) and the GI50 (TK-10) was > 74.8 µM (inactive). For the same compound, the GI50 (SF-539) was > 100 µM (inactive), the GI50 (NCI-H226) was > 41.5 µM (inactive) and the GI50 (K562) was > 26.2 µM (inactive). The GI50 (RPMI-8226) was > 20.2 µM (inactive), the GI50 (COLO 205) was > 51.6 µM (inactive) and the GI50 (SK-OV-3) was > 100 µM (inactive). For the same compound, the GI50 (RXF 393) was > 64.7 µM (inactive), the GI50 (MDA-MB-231) was > 73.6 µM (inactive) and the GI50 (EKVX) was > 71.1 µM (inactive). For the same compound, the GI50 (A549) was > 28.8 µM (inactive), the GI50 (SK-MEL-5) was > 69.2 µM (inactive) and the GI50 (NCI/ADR-RES) was > 48.3 µM (inactive). The GI50 (SNB-19) was > 60.7 µM (inactive), the GI50 (PC-3) was > 29.6 µM (inactive) and the GI50 (LOX IMVI) was > 40.5 µM (inactive). The GI50 (OVCAR-8) was > 48.3 µM (inactive), the GI50 (HCC 2998) was > 60.7 µM (inactive) and the GI50 (SK-MEL-2) was > 55.6 µM (inactive). For the same compound, the GI50 (IGROV-1) was 39.2 µM (inactive), the GI50 (M14) was > 51.4 µM (inactive) and the GI50 (Malme-3M) was > 83 µM (inactive). For the same compound, the GI50 (KM12) was > 32.7 µM (inactive), the GI50 (ACHN) was > 32.3 µM (inactive) and the GI50 (HOP-62) was 62.2 µM (inactive).
For `CC1OC(O[C@@H]2C=C3CC[C@@H]4[C@H](CC[C@]5(C)[C@@H](c6ccc(=O)oc6)CC[C@]45O)[C@@]3(C)CC2)C(O)C(O)C1O` (some centres undefined), the GI50 (NCI-H23) was 0.0475 µM (active), the GI50 (UACC-257) was 0.03 µM (active) and the GI50 (U-251) was 0.03 µM (active). For the same compound, the GI50 (MCF7) was 0.03 µM (active), the GI50 (SK-MEL-28) was 0.03 µM (active) and the GI50 (SW-620) was 0.03 µM (active). The GI50 (HT-29) was 0.03 µM (active), the GI50 (A498) was 0.03 µM (active) and the GI50 (Hs-578T) was 0.00119 µM (active). The GI50 (CCRF-CEM) was 0.03 µM (active), the GI50 (OVCAR-5) was 0.03 µM (active) and the GI50 (HCT-15) was 0.0475 µM. The GI50 (KM-20L2) was 0.03 µM (active), the GI50 (K562) was 0.03 µM (active) and the GI50 (RPMI-8226) was 0.03 µM (active). For the same compound, the GI50 (COLO 205) was 0.03 µM (active), the GI50 (SNB-19) was 0.03 µM (active) and the GI50 (LOX IMVI) was 0.03 µM (active). For the same compound, the GI50 (OVCAR-8) was 0.03 µM (active), the GI50 (IGROV-1) was 0.03 µM (active) and the GI50 (KM12) was 0.03 µM (active). The GI50 (ACHN) was 0.00179 µM (active) and the GI50 (M19-MEL) was 0.03 µM (active).
For `COc1cc(CCNC2=CC(=O)c3ncccc3C2=O)ccc1O`, the GI50 (DU-145) was 3.6 µM (inactive), the GI50 (SN12C) was 1.97 µM (inactive) and the GI50 (786-0) was 4.2 µM (inactive). The GI50 (NCI-H23) was 0.828 µM (active), the GI50 (BT-549) was 1.46 µM (inactive) and the GI50 (UACC-257) was 1.9 µM (inactive). For the same compound, the GI50 (SF-295) was 1.6 µM (inactive), the GI50 (U-251) was 2.09 µM (inactive) and the GI50 (NCI-H522) was 2.08 µM (inactive). The GI50 (MDA-MB-435) was 1.44 µM (inactive), the GI50 (CAKI-1) was 3.94 µM (inactive) and the GI50 (SF-268) was 8.11 µM (inactive). The GI50 (MOLT-4) was 2.99 µM (inactive), the GI50 (SNB-75) was 1.63 µM (inactive) and the GI50 (OVCAR-3) was 1.22 µM (inactive). The GI50 (UACC-62) was 1.96 µM (inactive), the GI50 (OVCAR-4) was 4.79 µM (inactive) and the GI50 (MCF7) was 2.44 µM (inactive). The GI50 (UO-31) was 5.3 µM (inactive), the GI50 (SK-MEL-28) was 2 µM (inactive) and the GI50 (SW-620) was 2.84 µM (inactive). The GI50 (HL-60) was 3.01 µM (inactive), the GI50 (HOP-92) was 19.2 µM (inactive) and the GI50 (NCI-H460) was 1.02 µM (active). For the same compound, the GI50 (HT-29) was 4.2 µM (inactive), the GI50 (A498) was 16.6 µM (inactive) and the GI50 (Hs-578T) was 2.36 µM (inactive). The GI50 (MDA-N) was 1.37 µM (inactive), the GI50 (CCRF-CEM) was 3.56 µM (inactive) and the GI50 (OVCAR-5) was 8.91 µM (inactive). The GI50 (HCT-116) was 3.17 µM (inactive), the GI50 (T47D) was 21.8 µM (inactive) and the GI50 (HCT-15) was 1.94 µM. For the same compound, the GI50 (SR) was 3.48 µM (inactive), the GI50 (TK-10) was 26.9 µM (inactive) and the GI50 (SF-539) was 3.04 µM (inactive). The GI50 (NCI-H226) was 2.7 µM (inactive), the GI50 (K562) was 2.21 µM (inactive) and the GI50 (RPMI-8226) was 6.76 µM (inactive). For the same compound, the GI50 (COLO 205) was 18.6 µM (inactive), the GI50 (SK-OV-3) was 12.6 µM (inactive) and the GI50 (RXF 393) was 5.45 µM (inactive). For the same compound, the GI50 (MDA-MB-231) was 2.37 µM (inactive), the GI50 (EKVX) was 8.85 µM (inactive) and the GI50 (A549) was 2.1 µM (inactive). The GI50 (SK-MEL-5) was 0.54 µM (active), the GI50 (NCI/ADR-RES) was 2.93 µM (inactive) and the GI50 (SNB-19) was 3.48 µM (inactive). For the same compound, the GI50 (PC-3) was 2.65 µM (inactive), the GI50 (LOX IMVI) was 0.65 µM (active) and the GI50 (OVCAR-8) was 2.41 µM (inactive). The GI50 (HCC 2998) was 4.23 µM (inactive), the GI50 (SK-MEL-2) was 2.53 µM (inactive) and the GI50 (IGROV-1) was 2.29 µM (inactive). The GI50 (M14) was 1.71 µM (inactive), the GI50 (Malme-3M) was 0.753 µM (active) and the GI50 (KM12) was 5.25 µM (inactive). For the same compound, the GI50 (ACHN) was 4.71 µM (inactive) and the GI50 (HOP-62) was 2.39 µM (inactive).
